Reference: article PMC11589570, “Critical assessment of LC3/GABARAP ligands used for degrader development and ligandability of LC3/GABARAP binding pockets” (Nature Communications, 2024)
Several values for one entry are separate records, joined by “and”; a condition that tells them apart may be missing. Equal entries are not always repeated.

Test system: U2OS cells
Assay: Cell growth assay (IncuCyte confluence over 72 h)
Type: cell-based
Design: key to U2OS cell growth: % of well area covered by cells (confluence)
Method: Cell growth assay: Cell confluence (phase) from RPE1 (hTERT RPE-1, ATCC CLR_4000) or U2OS (ATCC, HTB-96) cell lines were monitored over time with the IncuCyte S3 (Sartiorius, Germany) in 384-well plates in 50 ul DMEM media, supplemented with 10% Fetal Bovine Serum (FBS) 1% penicillin/Streptomycin and incubated 24 h before treatment. Experiment was performed as described in Cano-Franco et al.. […] Cell confluence is represented as % of area covered by cells. Each data point represents the average ratio or confluence obtained from three individual wells of the plate.

## CO[C@@H]1[C@@H](OC(N)=O)[C@@H](O)[C@H](Oc2ccc3c(O)c(NC(=O)c4ccc(O)c(CC=C(C)C)c4)c(=O)oc3c2C)OC1(C)C [compound 12, Novobiocin]
100 nM, time 10 h
  U2OS cell growth: 31.1029 and 33.4179 and 23.7087
100 nM, time 0 h
  U2OS cell growth: 19.136 and 22.8325 and 13.4185
100 nM, time 2 h
  U2OS cell growth: 26.0593 and 27.2796 and 22.6674
100 nM, time 4 h
  U2OS cell growth: 30.3299 and 25.4304 and 21.2335
100 nM, time 6 h
  U2OS cell growth: 27.5347 and 27.1928 and 26.8694
100 nM, time 8 h
  U2OS cell growth: 31.7442 and 25.9761 and 21.578
500 nM, time 0 h
  U2OS cell growth: 26.2226 and 29.6942 and 26.7407
500 nM, time 2 h
  U2OS cell growth: 28.1697 and 29.3576 and 35.4881
500 nM, time 4 h
  U2OS cell growth: 24.6559 and 29.8656 and 34.6982
500 nM, time 6 h
  U2OS cell growth: 27.3788 and 36.5331 and 38.1104
1 uM, time 12 h
  U2OS cell growth: 42.1826
1 uM, time 0 h
  U2OS cell growth: 33.676 and 37.1441 and 40.8786
1 uM, time 2 h
  U2OS cell growth: 36.3349 and 37.5509 and 45.2384
1 uM, time 4 h
  U2OS cell growth: 33.5211 and 30.275 and 38.1541
1 uM, time 6 h
  U2OS cell growth: 37.9722 and 40.3217 and 48.2479
3 uM, time 10 h
  U2OS cell growth: 50.7454 and 57.0193 and 59.2136
3 uM, time 12 h
  U2OS cell growth: 41.453 and 34.0715 and 58.5093
3 uM, time 0 h
  U2OS cell growth: 41.5291 and 47.819 and 45.1855
3 uM, time 2 h
  U2OS cell growth: 44.8462 and 48.6747 and 48.1364
3 uM, time 4 h
  U2OS cell growth: 43.175 and 44.1535 and 45.8798
3 uM, time 6 h
  U2OS cell growth: 48.3538 and 51.3151 and 53.1755
3 uM, time 8 h
  U2OS cell growth: 48.5002 and 53.1189 and 54.8109
5 uM, time 10 h
  U2OS cell growth: 57.6709 and 52.4954 and 56.7999
5 uM, time 0 h
  U2OS cell growth: 41.1202 and 38.7556 and 46.8996
5 uM, time 2 h
  U2OS cell growth: 48.6568 and 43.7565 and 48.1243
5 uM, time 4 h
  U2OS cell growth: 49.6825 and 47.505 and 46.9675
5 uM, time 6 h
  U2OS cell growth: 52.2007 and 50.4885 and 57.3887
5 uM, time 8 h
  U2OS cell growth: 51.5745 and 47.2991 and 53.416
10 uM, time 10 h
  U2OS cell growth: 46.9907 and 34.892 and 44.8825
10 uM, time 0 h
  U2OS cell growth: 34.3842 and 28.0059 and 32.3826
10 uM, time 2 h
  U2OS cell growth: 40.1489 and 30.903 and 35.6928
10 uM, time 4 h
  U2OS cell growth: 42.2655 and 32.6525 and 40.3474
10 uM, time 6 h
  U2OS cell growth: 45.1844 and 33.7835 and 42.5534
10 uM, time 8 h
  U2OS cell growth: 38.9614 and 32.8145 and 39.1419
